Experimental data: patent US11912662B1, “2-alkoxy[4,3:6,2-terpyridine]-3-carbonitrile as antimicrobial compounds” (KING FAISAL UNIVERSITY, priority 2023, dated 2024)

How the values were obtained:
Assay type in all cases: cell-based
[1] = tested on: Aspergillus flavus; assay: Agar plate disc-diffusion antifungal test, Aspergillus flavus; settings: Sabouraud's dextrose agar, 37° C., 72 h, DMSO control zone subtracted
Description: (§1) The agar plate disc-diffusion method was applied. Sterilized filter papers (6 mm in diameter) were wetted with 10 μL of a solution of 2-ethoxy[4,3:6,2-terpyridine]-3-carbonitrile (4) or 2-methoxy[4,3:6,2-terpyridine]-3-carbonitrile (5) to be tested, containing […], and the discs were allowed to air dry. The discs were then placed onto the surface of agar plates (nutrient agar for bacteria and Sabouraud's dextrose agar for fungi) seeded with the test organism. Each plate contained 15 mL of the agar medium, previously seeded with 0.2 mL of the broth culture of each organism pre-grown for 18 hours. The plates were incubated at 37° C. for 48 h, and 72 h for fungi. The inhibition zones were measured in mm. Discs impregnated with DMSO were used as a control, and its inhibition zone was subtracted from the tested compound actual inhibition zone.
(§2) The results of the antimicrobial testing can be observed in Tables 1 and 2, below, using ciprofloxacin as a reference.

[2] = tested on: Staphylococcus aureus; assay: Agar plate disc-diffusion antibacterial test, Staphylococcus aureus; settings: nutrient agar, 37° C., 48 h, DMSO control zone subtracted
Description: as §1, §2

[3] = tested on: Escherichia coli; assay: Agar plate disc-diffusion antibacterial test, Escherichia coli; settings: nutrient agar, 37° C., 48 h, DMSO control zone subtracted
Description: as §1, §2

[4] = tested on: Chrysosporium keratinophilum; assay: Agar plate disc-diffusion antifungal test, Chrysosporium keratinophilum; settings: Sabouraud's dextrose agar, 37° C., 72 h, DMSO control zone subtracted
Description: as §1, §2

[5] = tested on: Pseudomonas aeruginosa; assay: Agar plate disc-diffusion antibacterial test, Pseudomonas aeruginosa; settings: nutrient agar, 37° C., 48 h, DMSO control zone subtracted
Description: as §1, §2

[6] = tested on: Bacillus cereus; assay: Agar plate disc-diffusion antibacterial test, Bacillus cereus; settings: nutrient agar, 37° C., 48 h, DMSO control zone subtracted
Description: as §1, §2

[7] = A = concentration of comp. = 10,000 μL
[8] = B = concentration of comp. = 30.000 μL
[9] = C = concentration of comp. = 50,000 μL

SMILES | inhibition zone [1, 7] [mm] | inhibition zone [1, 8] [mm] | inhibition zone [1, 9] [mm] | inhibition zone [2, 7] [mm] | inhibition zone [2, 8] [mm] | inhibition zone [2, 9] [mm] | inhibition zone [3, 7] [mm] | inhibition zone [3, 8] [mm] | inhibition zone [3, 9] [mm] | inhibition zone [4, 7] [mm] | inhibition zone [4, 8] [mm] | inhibition zone [4, 9] [mm] | inhibition zone [5, 7] [mm] | inhibition zone [5, 8] [mm] | inhibition zone [5, 9] [mm] | inhibition zone [6, 7] [mm] | inhibition zone [6, 8] [mm] | inhibition zone [6, 9] [mm]
CCOc1nc(-c2ccccn2)cc(-c2cccnc2)c1C#N [Compound 4, 2-ethoxy[4,3:6,2-terpyridine]-3-carbonitrile] | 20 | 23 | 35 | 16 | 20 | 28 | 28 | 37 | 51 | 22 | 24 | 35 | 24 | 29 | 46 | 25 | 27 | 40
COc1nc(-c2ccccn2)cc(-c2cccnc2)c1C#N [Compound 5, 2-methoxy[4,3:6,2-terpyridine]-3-carbonitrile] | 21 | 26 | 31 | 18 | 22 | 31 | 29 | 38 | 54 | 25 | 27 | 47 | 25 | 29 | 47 | 26 | 28 | 41
O=C(O)c1cn(C2CC2)c2cc(N3CCNCC3)c(F)cc2c1=O [Cip., ciprofloxacin, reference compound] | 29 | 30 | 42 | 43 | 44 | 53 | 30 | 39 | 60 | 29 | 30 | 53 | 29 | 30 | 53 | 29 | 30 | 42
